Experimental data from patent US7297344B1, “Preparations for the promotion of wound healing in the upper respiratory tract and/or ear” (priority 1999, dated 2007).

System: Human ciliated epithelium cells
Assay: in-vitro ciliary vibration (ciliary activity) test
Format: cell-based
Experimental: The corresponding cells were exposed and incubated with 100 μl test substance at a temperature of 37° C.

Compound: N=C(NCCCCCCNC(=N)NC(=N)Nc1ccc(Cl)cc1)NC(=N)Nc1ccc(Cl)cc1 [chlorohexidine]
- ciliary activity / ciliary vibration: decrease of the measured ciliary vibration
